According to PMC9502272, “A Metabolomics Approach for Predicting OATP1B-Type Transporter-Mediated Drug–Drug Interaction Liabilities” (Pharmaceutics, 2022):
Structures can show the parent of a compound that is named as a salt.

Target: T1, Oatp1b2 (Mus musculus, UniProt Q9JJL3)
T1 sequence (Q9JJL3 1-689): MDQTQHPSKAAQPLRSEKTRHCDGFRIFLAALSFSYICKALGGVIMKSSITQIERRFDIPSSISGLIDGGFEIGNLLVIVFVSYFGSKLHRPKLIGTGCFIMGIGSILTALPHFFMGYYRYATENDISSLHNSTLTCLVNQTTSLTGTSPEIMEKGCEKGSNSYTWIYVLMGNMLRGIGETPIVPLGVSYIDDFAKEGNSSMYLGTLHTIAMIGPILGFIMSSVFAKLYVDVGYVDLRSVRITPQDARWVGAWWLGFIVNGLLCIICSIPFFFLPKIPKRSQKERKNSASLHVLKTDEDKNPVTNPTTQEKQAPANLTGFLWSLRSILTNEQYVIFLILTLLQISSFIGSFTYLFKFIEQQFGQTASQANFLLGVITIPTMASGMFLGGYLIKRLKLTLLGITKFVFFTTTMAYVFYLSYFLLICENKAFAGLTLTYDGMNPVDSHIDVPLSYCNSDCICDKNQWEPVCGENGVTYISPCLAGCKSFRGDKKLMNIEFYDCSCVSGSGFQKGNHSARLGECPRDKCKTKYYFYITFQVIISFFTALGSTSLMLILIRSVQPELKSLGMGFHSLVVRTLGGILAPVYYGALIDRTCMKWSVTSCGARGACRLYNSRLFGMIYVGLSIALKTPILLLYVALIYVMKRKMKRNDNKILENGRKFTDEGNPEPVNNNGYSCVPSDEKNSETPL
Assay: Untargeted metabolomics of plasma from untreated wild-type and Oatp1b2(−/−) mice
Conditions: for Fold of Change KO/WT: plasma of untreated Oatp1b2-deficient (KO) vs wild-type (WT) mice, semi-quantitative, positive = higher in KO, n = 6 per group; for Mean value KO: plasma of untreated Oatp1b2-deficient mice; for Mean value KO / Mean value WT: raw area counts rescaled to median = 1; for Mean value WT: plasma of untreated wild-type mice
Method: For all experiments, age- and sex-matched mice (8–12 weeks old) were used. […] Mice with a deficiency of Oatp1b2 (Oatp1b2(−/−) mice), the single murine orthologue of OATP1B1 and OATP1B3 in humans, on a DBA/1LacJ background were kindly provided by Drs. Richard B. Kim (Western University, London, Ontario, Canada) and Jeffrey L. Stock (Pfizer, Groton, CT, USA).
Plasma samples from untreated wild-type mice and Oatp1b2(−/−) mice were analyzed for structurally named and unknown molecules using a non-targeted semi-quantitative liquid chromatography-tandem mass spectrometry (LC-MS/MS) and gas chromatography-mass spectrometry platforms (Metabolon, Durham, NC, USA). Compounds were identified by comparison with library entries of purified standards or recurrent unknown entities.

Row | Compound | Fold of Change KO/WT | Mean value KO | Mean value WT
1 | O=C(O)CCc1ccccc1.O=C(O)CCc1ccccc1 [3-phenylpropionate (hydrocinnamate)] | 1.62 | 1.39 | .855
2 | CC(=O)Nc1ccc(C(=O)O)cc1 [4-acetamidobenzoate] | 2.14 | 1.46 | .685
3 | CC(C)CCC[C@@H](C)[C@H]1CC[C@H]2[C@@H]3CCC4=CC(=O)CC[C@]4(C)[C@H]3CC[C@]12C [4-cholesten-3-one] | 1.29 | 1.12 | .870
4 | CCc1ccc(OS(=O)(=O)[O-])cc1.[K+] [4-ethylphenylsulfate] | 17.2 | 4.08 | .238
5 | C=Cc1ccc(OS(=O)(=O)O)cc1 [4-vinylphenol sulfate] | 1.55 | 1.32 | .847
6 | CCCCCC/C=C\CCCC(=O)OC(CC(=O)[O-])C[N+](C)(C)C (stereo not drawn) [5-dodecenoylcarnitine (C12:1)] | 1.46 | 1.37 | .936
7 | Cc1cn([C@H]2C[C@H](O)[C@@H](CO)O2)c(=O)nc1N [5-methyl-2'-deoxycytidine] | 1.83 | 1.56 | .852
8 | C[C@H](CCC(=O)O)[C@H]1CC[C@H]2[C@@H]3C[C@@H](O)[C@@H]4C[C@H](O)CC[C@]4(C)[C@H]3CC[C@]12C [6-beta-hydroxylithocholate] | 13.1 | 1.16 | .0890
9 | C[C@H](CCC(=O)O)[C@H]1CC[C@H]2[C@@H]3CC(=O)[C@@H]4C[C@H](O)CC[C@]4(C)[C@H]3CC[C@]12C [6-oxolithocholate] | 1.43 | 0.970 | .678
10 | CC(CCC[C@@H](C)[C@H]1CC[C@H]2[C@@H]3[C@H](O)CC4=CC(=O)CC[C@]4(C)[C@H]3CC[C@]12C)C(=O)O (stereo partly drawn) [7-alpha-hydroxy-3-oxo-4-cholestenoate (7-Hoca)] | 1.27 | 1.20 | .944
11 | C[C@H](CCC(=O)O)[C@H]1CC[C@H]2[C@@H]3C(=O)C[C@@H]4C[C@H](O)CC[C@]4(C)[C@H]3C[C@H](O)[C@]12C [7-ketodeoxycholate] | 6.23 | 2.26 | .362
12 | CC(=O)Nc1ccn([C@@H]2O[C@H](CO)[C@@H](O)[C@H]2O)c(=O)n1 [N4-acetylcytidine] | 1.36 | 1.12 | .819
13 | C[N+](C)(C)CCCCC(=O)[O-] [N,N,N-trimethyl-5-aminovalerate] | 3.45 | 2.06 | .597
14 | CC(=O)N[C@@H](Cc1cncn1C)C(=O)O [N-acetyl-3-methylhistidine] | 1.24 | 1.09 | .878
15 | CC(=O)N[C@@H](CCCCNC(N)=O)C(=O)O [N-acetylhomocitrulline] | 1.35 | 1.17 | .861
16 | Nc1ncnc2c1ncn2C1OC(COP(=O)(O)O)C(O)C1O (stereo not drawn) [adenosine 5'-monophosphate (AMP)] | 1.12 | 1.04 | .927
17 | CC(C)CCC[C@@H](C)[C@H]1CC[C@H]2[C@@H]3CC=C4C[C@@H](OS(=O)(=O)O)CC[C@]4(C)[C@H]3CC[C@]12C [cholesterol sulfate] | 1.23 | 1.08 | .875
18 | C[C@H](CCC(=O)O)[C@H]1CC[C@H]2[C@@H]3CC[C@@H]4C[C@H](O)CC[C@]4(C)[C@H]3C[C@H](OS(=O)(=O)O)[C@]12C [deoxycholic acid 12-sulfate] | 1.25 | 1.06 | .851
19 | NCCOP(=O)(O)OCC(O)CO (stereo not drawn) [glycerophosphoethanolamine] | 1.57 | 1.31 | .831

Second part, the compound after the results:

Row | Fold of Change KO/WT | Mean value KO | Mean value WT | Compound
20 | 1.41 | 1.17 | .827 | CC(=O)N[C@@H](CC(=O)c1ccccc1N)C(=O)O [N-acetylkynurenine (2)]
21 | 1.40 | 1.31 | .931 | CC(=O)N[C@@H](CC[S+](C)[O-])C(=O)O (stereo partly drawn) [N-acetylmethionine sulfoxide]
22 | 1.19 | 1.11 | .931 | CSC[C@H](NC(=O)CC[C@H](N)C(=O)O)C(=O)NCC(=O)O [S-methylglutathione]
23 | 2.29 | 1.80 | .787 | CC(C)CC(O)C(=O)O (stereo not drawn) [alpha-hydroxyisocaproate]
24 | 1.68 | 1.43 | .850 | CC(C)C(O)C(=O)O (stereo not drawn) [alpha-hydroxyisovalerate]
25 | 45.2 | 2.71 | .0600 | C[C@H](CCC(=O)O)[C@H]1CC[C@H]2[C@@H]3[C@H](O)[C@@H](O)[C@@H]4C[C@H](O)CC[C@]4(C)[C@H]3CC[C@]12C [alpha-muricholate]
26 | 1.92 | 1.53 | .796 | CCCCC/C=C\C/C=C\C/C=C\C/C=C\CCCC(=O)O[C@H](CC(=O)[O-])C[N+](C)(C)C [arachidonoylcarnitine (C20:4)]
27 | 1.36 | 1.21 | .889 | CCCCCCCCCCCCCCCCCCCC(=O)OC(CC(=O)[O-])C[N+](C)(C)C (stereo not drawn) [arachidoylcarnitine (C20)]
28 | 1.40 | 1.17 | .835 | CC(C)(O)CC(=O)O [beta-hydroxyisovalerate]
29 | 15.2 | 2.84 | .187 | C[C@H](CCC(=O)O)[C@H]1CC[C@H]2[C@@H]3[C@@H](O)[C@@H](O)[C@@H]4C[C@H](O)CC[C@]4(C)[C@H]3CC[C@]12C [beta-muricholate]
30 | 6.12 | 1.17 | .191 | C=CC1=C(C)/C(=C/c2[nH]c(Cc3[nH]c(/C=C4\NC(=O)C(C)=C4C=C)c(C)c3CCC(=O)O)c(CCC(=O)O)c2C)NC1=O [bilirubin (E,E)]
31 | 5.25 | 1.48 | .282 | C=CC1=C(C)/C(=C/c2[nH]c(Cc3[nH]c(/C=C4\NC(=O)C(C)=C4C=C)c(C)c3CCC(=O)O)c(CCC(=O)O)c2C)NC1=O [bilirubin (Z,Z)]
32 | 4.09 | 1.84 | .450 | C=CC1=C(C)/C(=C/C2=NC(=C\c3[nH]c(/C=C4\NC(=O)C(C)=C4C=C)c(C)c3CCC(=O)O)/C(CCC(=O)O)=C2C)NC1=O [biliverdin]
33 | 1.72 | 1.28 | .744 | CCCC(=O)NCC(=O)O [butyrylglycine]
34 | 3.57 | 2.09 | .585 | C[C@H](CCC(=O)O)[C@H]1CC[C@H]2[C@@H]3[C@H](O)C[C@@H]4C[C@H](O)CC[C@]4(C)[C@H]3CC[C@]12C [chenodeoxycholate]
35 | 1.99 | 1.54 | .776 | O=C(O)CNC(=O)/C=C/c1ccccc1 [cinnamoylglycine]
36 | 1.75 | 1.37 | .785 | CCCCC/C=C\C/C=C\CCCCCCCCCC(=O)OC(CC(=O)[O-])C[N+](C)(C)C (stereo not drawn) [dihomo-linoleoylcarnitine (C20:2)]
37 | 8.12 | 2.97 | .366 | O=C(O)CCCCCCCCCCC(=O)O [dodecanedioate (C12-DC)]
38 | 1.31 | 1.22 | .927 | OC[C@@H](O)[C@@H](O)CO [erythritol]
39 | 1.41 | 1.17 | .826 | CCO[C@@H]1O[C@H](CO)[C@@H](O)[C@H](O)[C@H]1O [ethyl beta-glucopyranoside]
40 | 1.23 | 1.17 | .950 | N[C@@H](CCC(=O)NCC(=O)O)C(=O)O [gamma-glutamylglycine]
41 | 1.34 | 1.12 | .836 | C[N+](C)(C)CCOP(=O)([O-])OC[C@H](O)CO [glycerophosphorylcholine (GPC)]
42 | 1.66 | 1.36 | .818 | O=C(O)CCCCCCCCCCCCCCCC(=O)O [heptadecanedioate (C17-DC)]
